Assay results reported in patent publication US11390604B2 (Hoffmann-La Roche Inc., priority 2019, dated 2022).
Counter-ions that a name gives are not always drawn.

Tested on: Acinetobacter baumannii ATCC 17961
Assay: Antimicrobial susceptibility testing: 90% growth inhibitory concentration (IC90) determination
Format: cell-based
Details: ATCC17961, Acinetobacter baumannii ATCC 17961, Iso-Sensitest broth, read-out: ATCC 17961 IC90
Summary of the method: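 Growth was followed kinetically by OD600 at 20-min intervals for 16 h at 35±2 °C, with ~5×10^5 CFU/ml in Iso-Sensitest broth. Compounds were tested as twofold dilutions (e.g. 50–0.097 μM final). The concentration giving 90% inhibition of log-phase growth was reported.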

IC90	Compound
411 nM	Cn1c(-c2cn(CC#N)nc2C(F)(F)F)cnc1C(=O)Nc1ccc(C(=O)N[C@H]2C[C@@H](NC(=O)N3CCCC(N)C3)C2)c(Cl)c1 (stereo partly shown) [Example 326, 3-amino-N-[3-[[2-chloro-4-[[5-[1-(cyanomethyl)-3-(trifluoromethyl)pyrazol-4-yl]-1-methyl-imidazole-2-carbonyl]amino]benzoyl]amino]cyclobutyl]piperidine-1-carboxamide; formic acid]
426 nM	Cn1c(-c2cn(CC#N)nc2C(F)(F)F)cnc1C(=O)Nc1ccc(C(=O)N2CCN(C(=O)N[C@H]3CCNC3)CC2)c(Cl)c1 [Example 143, 4-[2-chloro-4-[[5-[1-(cyanomethyl)-3-(trifluoromethyl)pyrazol-4-yl]-1-methylimidazole-2-carbonyl]amino]benzoyl]-N-[(3S)-pyrrolidin-3-yl]piperazine-1-carboxamide;formic acid]
423 nM	Cn1c(-c2cn(C3CC3)nc2C(F)(F)F)cnc1C(=O)Nc1ccc(C(=O)N[C@H]2[C@@H]3CN(C(=O)N[C@@H]4CCC[C@@H]4N)C[C@@H]32)c(Cl)c1 [Example 334, exo-N-((1R,2S)-2-aminocyclopentyl)-6-(2-chloro-4-(5-(1-cyclopropyl-3-(trifluoromethyl)-1H-pyrazol-4-yl)-1-methyl-1H-imidazole-2-carboxamido)benzamido)-3-azabicyclo[3.1.0]hexane-3-carboxamide formate]
351 nM	Cn1c(-c2cn(C3CC3)nc2C(F)(F)F)cnc1C(=O)Nc1ccc(C(=O)N2CCN(C(=O)[C@@H](N)CCCN)CC2)c(Cl)c1 [Example 285, (S)-N-(3-chloro-4-(4-(2,5-diaminopentanoyl)piperazine-1-carbonyl)phenyl)-5-(1-cyclopropyl-3-(trifluoromethyl)-1H-pyrazol-4-yl)-1-methyl-1H-imidazole-2-carboxamide dihydrochloride]
495 nM	Cn1c(-c2cn(CC(F)F)nc2C(F)(F)F)cnc1C(=O)Nc1ccc(C(=O)N2CCN(CC(=O)NCCN)CC2)c(Cl)c1 [Example 375, N-(4-(4-(2-((2-aminoethyl)amino)-2-oxoethyl)piperazine-1-carbonyl)-3-chlorophenyl)-5-(1-(2,2-difluoroethyl)-3-(trifluoromethyl)-1H-pyrazol-4-yl)-1-methyl-1H-imidazole-2-carboxamide formate]
351 nM	Cn1c(-c2cn(C3CC3)nc2C(F)(F)F)cnc1C(=O)Nc1ccc(C(=O)N2CCN(C(=O)C3CNCC(O)C3)CC2)c(Cl)c1 (stereo not shown) [Example 286, N-[3-chloro-4-[4-(5-hydroxypiperidine-3-carbonyl)piperazine-1-carbonyl]phenyl]-5-[1-cyclopropyl-3-(trifluoromethyl)pyrazol-4-yl]-1-methylimidazole-2-carboxamide;hydrochloride]
343 nM	Cn1c(-c2cn(C3CC3)nc2C(F)(F)F)cnc1C(=O)Nc1ccc(C(=O)N2CCCC(CN)C2)c(Cl)c1 (stereo not shown) [Example 277, N-[4-[3-(aminomethyl)piperidine-1-carbonyl]-3-chlorophenyl]-5-[1-cyclopropyl-3-(trifluoromethyl)pyrazol-4-yl]-1-methylimidazole-2-carboxamide;hydrochloride]
231 nM	Cn1c(-c2cn(CC(F)F)nc2C(F)(F)F)cnc1C(=O)Nc1ccc(S(=O)(=O)N2CCN(C(=O)[C@H]3CC[C@@H](N)C3)CC2)c(Cl)c1 [Example 211, N-(4-((4-((1S,3R)-3-aminocyclopentane-1-carbonyl)piperazin-1-yl)sulfonyl)-3-chlorophenyl)-5-(1-(2,2-difluoroethyl)-3-(trifluoromethyl)-1H-pyrazol-4-yl)-1-methyl-1H-imidazole-2-carboxamide hydrochloride]
449 nM	Cn1c(-c2cn(C3CC3)nc2C(F)(F)F)cnc1C(=O)Nc1ccc(C(=O)N2CCN(C(=O)N3CC[C@@H](N)C3)CC2)c(Cl)c1 [Example 349, (R)-N-(4-(4-(3-aminopyrrolidine-1-carbonyl)piperazine-1-carbonyl)-3-chlorophenyl)-5-(1-cyclopropyl-3-(trifluoromethyl)-1H-pyrazol-4-yl)-1-methyl-1H-imidazole-2-carboxamide formate]
235 nM	Cn1c(-c2cn(C3CC3(F)F)nc2C(F)(F)F)cnc1C(=O)Nc1ccc(C(=O)N2CC3C(N)C3C2)c(Cl)c1 (stereo not shown) [Example 212, N-(4-(6-amino-3-azabicyclo[3.1.0]hexane-3-carbonyl)-3-chlorophenyl)-5-(1-(2,2-difluorocyclopropyl)-3-(trifluoromethyl)-1H-pyrazol-4-yl)-1-methyl-1H-imidazole-2-carboxamide formate]
146 nM	Cn1c(-c2cn(C3CC3(F)F)nc2C(F)(F)F)cnc1C(=O)Nc1ccc(C(=O)N[C@H]2[C@@H]3CN(C(=O)C4CCNCC4)C[C@@H]32)c(Cl)c1 (stereo partly drawn) [Example 172, N-(3-chloro-4-(((1R,5S,6s)-3-(piperidine-4-carbonyl)-3-azabicyclo[3.1.0]hexan-6-yl)carbamoyl)phenyl)-5-(1-(2,2-difluorocyclopropyl)-3-(trifluoromethyl)-1H-pyrazol-4-yl)-1-methyl-1H-imidazole-2-carboxamide formate]
825 nM	Cn1c(-c2c[nH]nc2-c2ccccc2)cnc1C(=O)Nc1ccc(C(=O)N2CCN(C(=O)C3CCNCC3)CC2)c(Cl)c1 [Example 66, N-[3-chloro-4-[4-(piperidine-4-carbonyl)piperazine-1-carbonyl]phenyl]-1-methyl-5-(3-phenyl-1H-pyrazol-4-yl)imidazole-2-carboxamide]
524 nM	Cn1c(-c2cn(CC(F)(F)F)nc2C(F)(F)F)cnc1C(=O)Nc1ccc(C(=O)N2CCN(C3=NC(CN)CO3)CC2)c(Cl)c1 (stereo not shown) [Example 148, N-[4-[4-[4-(aminomethyl)-4,5-dihydro-1,3-oxazol-2-yl]piperazine-1-carbonyl]-3-chlorophenyl]-1-methyl-5-[1-(2,2,2-trifluoroethyl)-3-(trifluoromethyl)pyrazol-4-yl]imidazole-2-carboxamide]
148 nM	C=C(F)Cn1cc(-c2cnc(C(=O)Nc3ccc(C(=O)NCCCCCN)c(Cl)c3)n2C)c(C(F)(F)F)n1 [Example 185, N-(4-((5-aminopentyl)carbamoyl)-3-chlorophenyl)-5-(1-(2-fluoroallyl)-3-(trifluoromethyl)-1H-pyrazol-4-yl)-1-methyl-1H-imidazole-2-carboxamide hydrochloride]
328 nM	Cn1c(-c2cn(C3CC3(F)F)nc2C(F)(F)F)cnc1C(=O)Nc1ccc(C(=O)NC2[C@H]3CN(C(=O)N[C@H]4C[C@@H](N)C4)C[C@@H]23)c(Cl)c1 (stereo partly drawn) [Example 265, cis-N-(3-aminocyclobutyl)-6-[[2-chloro-4-[[5-[1-(2,2-difluorocyclopropyl)-3-(trifluoromethyl)pyrazol-4-yl]-1-methylimidazole-2-carbonyl]amino]benzoyl]amino]-3-azabicyclo[3.1.0]hexane-3-carboxamide, formate salt]
769 nM	Cc1cc(NC(=O)c2ncc(-c3cn(CC#N)nc3C(F)(F)F)n2C)cc(F)c1C(=O)N1CCN(C(=O)[C@H]2CC[C@@H](N)C2)CC1 [Example 119, N-[4-[4-[(1S,3R)-3-aminocyclopentanecarbonyl]piperazine-1-carbonyl]-3-fluoro-5-methylphenyl]-5-[1-(cyanomethyl)-3-(trifluoromethyl)pyrazol-4-yl]-1-methylimidazole-2-carboxamide]
483 nM	CNC1CCN(C(=O)c2ccc(NC(=O)c3ncc(-c4cn(C5CC5)nc4C(F)(F)F)n3C)cc2Cl)CC1 [Example 366, N-(3-chloro-4-(4-(methylamino)piperidine-1-carbonyl)phenyl)-5-(1-cyclopropyl-3-(trifluoromethyl)-1H-pyrazol-4-yl)-1-methyl-1H-imidazole-2-carboxamide formate]
464 nM	Cn1c(-c2cn(CC#N)nc2C(F)(F)F)cnc1C(=O)Nc1ccc(C(=O)N2CCN(C(=O)[C@H]3C[C@H](N)C3)CC2)c(Cl)c1 [Example 355, N-[4-[4-(3-aminocyclobutanecarbonyl)piper-azine-1-carbonyl]-3-chlorophenyl]-5-[1-(cyanomethyl)-3-(trifluoromethyl)pyrazol-4-yl]-1-methylimidazole-2-carboxamide;trihydrochloride]
422 nM	C[C@@H](N)C(=O)N[C@H]1C[C@@H](NC(=O)c2ccc(NC(=O)c3ncc(-c4cn(CC#N)nc4C(F)(F)F)n3C)cc2Cl)C1 [Example 95, N-[4-[[3-[[(2R)-2-aminopropanoyl]amino]cyclobutyl]carbamoyl]-3-chlorophenyl]-5-[1-(cyanomethyl)-3-(trifluoromethyl)pyrazol-4-yl]-1-methylimidazole-2-carboxamide;2,2,2-trifluoroacetic acid]
442 nM	C#CCn1cc(-c2cnc(C(=O)Nc3ccc(S(C)(=O)=NCCCN)c(C)c3)n2C)c(C(F)(F)F)n1 (stereo not shown) [Example 342, N-[4-[N-(3-aminopropyl)-S-methyl-sulfonimidoyl]-3-methyl-phenyl]-1-methyl-5-[1-prop-2-ynyl-3-(trifluoromethyl)pyrazol-4-yl]imidazole-2-carboxamide; formic acid]

Compound	IC90
Cn1c(-c2cn(C3CC3(F)F)nc2C(F)(F)F)cnc1C(=O)Nc1ccc(C(=O)N2C3CCC2CNC3)c(Cl)c1 (stereo not shown) [Example 268, N-(4-(3,8-diazabicyclo[3.2.1]octane-8-carbonyl)-3-chlorophenyl)-5-(1-(2,2-difluorocyclopropyl)-3-(trifluoromethyl)-1H-pyrazol-4-yl)-1-methyl-1H-imidazole-2-carboxamide formate]	332 nM
Cn1c(-c2cn(C3CC3(F)F)nc2C(F)(F)F)cnc1C(=O)Nc1ccc(C(=O)NC2C[C@@H]3CC[C@@H](C2)N3)c(Cl)c1 (mixture of isomers) [Example 283, rac-N-(4-(((1R,3s,5S)-8-azabicyclo[3.2.1]octan-3-yl)carbamoyl)-3-chlorophenyl)-5-(1-(2,2-difluorocyclopropyl)-3-(trifluoromethyl)-1H-pyrazol-4-yl)-1-methyl-1H-imidazole-2-carboxamide formate]	348 nM
